The values below come from PMC10360995, “Discovery of 3-((3-amino-1H-indazol-4-yl)ethynyl)-N-(4-((4-ethylpiperazin-1-yl)methyl)-3-(trifluoromethyl)phenyl)benzamide (AKE-72), a potent Pan-BCR-ABL inhibitor including the T315I gatekeeper resistant mutant” (Journal of Enzyme Inhibition and Medicinal Chemistry, 2023).

Like-named read-outs stand apart in the source and are kept apart here.

For one experiment, the system named is MOLT-4. In words: NCI SRB anti-leukemic assay. Particulars: for GI50 / CC50: Homo sapiens; for GI50: MOLT-4, read-out: GI50 MOLT-4; for CC50: MOLT-4, read-out: LC50 (half-maximal lethal concentration) MOLT-4; for TGI (total growth inhibition) MOLT-4: five-dose assay.
Experiment [1] has as its system HL-60(TB). Particulars: for TGI (total growth inhibition) HL-60(TB): five-dose assay.
For experiment [2], the target named is T1, BCR-ABL^WT (Homo sapiens, UniProt P00519). The experiment can be described thus: BCR-ABL WT kinase inhibition assay. The format is biochemical. Particulars: for IC50: 10-dose duplicate, 3-fold serial dilution, 10 µM ATP.
A further experiment concerns SR. The experiment can be described thus: NCI SRB anti-leukemic assay. Particulars: for GI50 / CC50: Homo sapiens, SR; for GI50: read-out: GI50 SR; for CC50: read-out: LC50 (half-maximal lethal concentration) SR; for TGI (total growth inhibition) SR: five-dose assay.
The subject of experiment [3] is HL-60(TB). The experiment can be described thus: cells. Particulars: Homo sapiens; for GI50: HL-60, read-out: GI50 HL-60(TB); for CC50: HL-60, read-out: LC50 (half-maximal lethal concentration) HL-60(TB).
Experiment [4] deals with K-562. In words: NCI SRB anti-leukemic assay. Particulars: for GI50 / CC50: Homo sapiens; for GI50: K562, read-out: GI50 K-562; for CC50: K562, read-out: LC50 (half-maximal lethal concentration) K-562.
Another experiment has as its system RPMI-8226. In words: NCI SRB anti-leukemic assay. Particulars: for GI50 / CC50: Homo sapiens; for GI50: RPMI-8226, read-out: GI50 RPMI-8226; for CC50: RPMI-8226, read-out: LC50 (half-maximal lethal concentration) RPMI-8226; for TGI (total growth inhibition) RPMI-8226: five-dose assay; for GI % RPMI-8226: single dose 10 µM.
The test system of a further experiment is CCRF-CEM. In words: NCI SRB anti-leukemic assay. Particulars: for GI50 / CC50: Homo sapiens, CCRF-CEM; for GI50: read-out: GI50 CCRF-CEM; for CC50: read-out: LC50 (half-maximal lethal concentration) CCRF-CEM; for TGI (total growth inhibition) CCRF-CEM: five-dose assay; for GI % CCRF-CEM: single dose 10 µM.
The test system of experiment [5] is K-562. The arrangement: method as in PMID 32961435. Particulars: cited from earlier work.
In experiment [6] the target is T1, BCR-ABL^WT. Particulars: cited from earlier work.
A further experiment relates to CML. Particulars: cited from earlier work.
The test system of a further experiment is Ba/F3 mouse pro-B cells. The experiment can be described thus: Cellular proliferation assay. The format is cell-based. Particulars: BaF3, read-out: GI50 Ba/F3 (mouse pro-B cell). The source says: We also tested AKE-72 against BCR-ABL-positive and BCR-ABL-negative cell lines.
1.8. Cytochrome P450 Assay
The binding site was defined based

T1 sequence (P00519 whole entry): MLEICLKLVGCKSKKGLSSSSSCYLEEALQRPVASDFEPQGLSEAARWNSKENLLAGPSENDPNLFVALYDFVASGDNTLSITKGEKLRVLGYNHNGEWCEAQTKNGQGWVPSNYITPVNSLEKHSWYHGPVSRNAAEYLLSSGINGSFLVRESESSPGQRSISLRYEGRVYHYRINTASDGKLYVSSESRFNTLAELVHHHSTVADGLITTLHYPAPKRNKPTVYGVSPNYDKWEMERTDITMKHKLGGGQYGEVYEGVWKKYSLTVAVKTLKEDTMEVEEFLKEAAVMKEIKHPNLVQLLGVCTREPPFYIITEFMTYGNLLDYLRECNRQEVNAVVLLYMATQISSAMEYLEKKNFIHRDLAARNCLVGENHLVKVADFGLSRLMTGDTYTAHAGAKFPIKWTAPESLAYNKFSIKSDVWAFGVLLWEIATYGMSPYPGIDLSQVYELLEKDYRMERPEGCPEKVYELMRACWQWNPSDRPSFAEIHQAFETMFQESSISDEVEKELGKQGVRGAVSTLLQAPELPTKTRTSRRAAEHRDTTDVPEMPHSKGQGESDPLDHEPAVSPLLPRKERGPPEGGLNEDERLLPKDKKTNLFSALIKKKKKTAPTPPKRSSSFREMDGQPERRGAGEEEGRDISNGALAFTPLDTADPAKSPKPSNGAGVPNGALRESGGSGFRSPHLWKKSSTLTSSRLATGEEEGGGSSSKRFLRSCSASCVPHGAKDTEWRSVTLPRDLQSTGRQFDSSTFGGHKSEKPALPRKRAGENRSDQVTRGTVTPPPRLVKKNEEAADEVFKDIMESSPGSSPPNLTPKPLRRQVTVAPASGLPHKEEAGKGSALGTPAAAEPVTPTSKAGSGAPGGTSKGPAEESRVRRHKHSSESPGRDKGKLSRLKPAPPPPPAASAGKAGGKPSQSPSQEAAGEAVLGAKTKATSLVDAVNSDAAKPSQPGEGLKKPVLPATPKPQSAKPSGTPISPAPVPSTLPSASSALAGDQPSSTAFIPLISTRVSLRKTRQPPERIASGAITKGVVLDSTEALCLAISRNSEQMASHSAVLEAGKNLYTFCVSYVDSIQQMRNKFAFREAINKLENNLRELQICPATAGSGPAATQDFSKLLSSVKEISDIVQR

In the case of `CN1CCN(Cc2ccc(C(=O)Nc3cccc(C#Cc4cccc5[nH]nc(N)c45)c3)cc2C(F)(F)F)CC1` [Compound 4a], in the experiment on MOLT-4, the GI50 came to 0.494 µM, the CC50 came out at 7.57 µM and the “TGI (total growth inhibition) MOLT-4” value is 2.28 µM. Further, the “TGI (total growth inhibition) HL-60(TB)” value with HL-60(TB) [1] is recorded as 1.6 µM. In addition, the IC50 against BCR-ABL^WT [2] was < 0.00051 µM. Moreover, the “fold superior potency against BCR-ABL^WT versus lead indazole II” value on BCR-ABL^WT [2] (relative to II) was > 300 folds. Moreover, in the experiment on SR, the GI50 stood at 1.1 µM, the CC50 was > 100 µM and the “TGI (total growth inhibition) SR” value is recorded as 3.35 µM. In the experiment with HL-60(TB) [3], the GI50 is 0.278 µM and the CC50 stood at 7.33 µM. Also, in the experiment with K-562 [4], the GI50 was < 0.01 µM and the CC50 is 6.03 µM. Besides, in the experiment with K-562 [4] (five-dose assay), the “TGI (total growth inhibition) K-562” value worked out at 1.02 µM. In the experiment on RPMI-8226, the GI50 was 1.22 µM, the CC50 came out at 9.52 µM, the “TGI (total growth inhibition) RPMI-8226” value came to 3.26 µM and the “GI % RPMI-8226” value was “L (lethal effect (% GI > 100))”. In addition, in the experiment on CCRF-CEM, the GI50 was found to be 1.22 µM, the CC50 was found to be 8.3 µM, the “TGI (total growth inhibition) CCRF-CEM” value came out at 3.18 µM and the “GI % CCRF-CEM” value is listed as “L (lethal effect (% GI > 100))”.
Consider `CCN1CCN(Cc2ccc(C(=O)Nc3cccc(C#Cc4cccc5[nH]nc(N)c45)c3)cc2C(F)(F)F)CC1` [Compound 4b], for which, in the experiment on MOLT-4, the GI50 amounted to 1.42 µM and the “TGI (total growth inhibition) MOLT-4” value worked out at 3.57 µM. In addition, in the experiment on HL-60(TB) [1], the “TGI (total growth inhibition) HL-60(TB)” value was 2.61 µM. The same compound registered an IC50 at BCR-ABL^WT [2] of 0.00064 ± 9.9e-06 µM. In addition, in the experiment with SR, the GI50 was found to be 1.78 µM, the CC50 is > 100 µM and the “TGI (total growth inhibition) SR” value stood at 4.59 µM. In addition, the GI50 in the experiment with HL-60(TB) [3] stood at 0.593 µM. Besides, the GI50 in the experiment with K-562 [4] is < 1 µM. In the experiment with K-562 [4] (five-dose assay), the “TGI (total growth inhibition) K-562” value was determined as 1.14 µM. Moreover, in the experiment on RPMI-8226, the GI50 was found to be 1.59 µM, the CC50 is 9.71 µM, the “TGI (total growth inhibition) RPMI-8226” value is reported as 3.92 µM and the “GI % RPMI-8226” value was “L (lethal effect (% GI > 100))”. In the experiment with CCRF-CEM, the GI50 stood at 1.6 µM, the CC50 was determined as 8.16 µM, the “TGI (total growth inhibition) CCRF-CEM” value is on record as 3.62 µM and the “GI % CCRF-CEM” value is reported as 96.4%.
Consider `Nc1n[nH]c2cccc(C#Cc3cccc(NC(=O)c4ccc(N5CCOCC5)c(C(F)(F)F)c4)c3)c12` [I, reference compound], for which, in the experiment on MOLT-4, the GI50 turned out to be 1.31 µM, the CC50 is > 100 µM and the “TGI (total growth inhibition) MOLT-4” value came out at 5.71 µM. In addition, the “GI % MOLT-4” value in the experiment on MOLT-4 (single dose 10 µM) was 92.33%. Also, the “TGI (total growth inhibition) HL-60(TB)” value with HL-60(TB) [1] turned out to be 10.5 µM. Besides, in the experiment with HL-60(TB) [1] (single dose 10 µM), the “GI % HL-60(TB)” value was 99.01%. For the same compound, the GI50 with K-562 [5] is < 0.01 µM. For the same compound, in the experiment on SR, the GI50 was found to be 2.4 µM, the CC50 was > 100 µM and the “TGI (total growth inhibition) SR” value was >100 µM. Further, the “GI % SR” value in the experiment on SR (single dose 10 µM) was 87.42%. In the experiment on HL-60(TB) [3], the GI50 was 1.4 µM and the CC50 is > 100 µM. In addition, in the experiment with K-562 [4], the GI50 is < 0.01 µM and the CC50 was > 100 µM. Also, in the experiment on K-562 [4] (five-dose assay), the “TGI (total growth inhibition) K-562” value is recorded as 13.5 µM and the “TGI K-562” value was found to be 13.5 µM. Moreover, in the experiment on K-562 [4] (single dose 10 µM), the “GI % K-562” value was determined as 97.96%. In addition, the IC50 on BCR-ABL^WT [6] is 0.0046 ± 0.0006 µM. Besides, in the experiment with RPMI-8226, the GI50 was 1.98 µM, the CC50 was > 100 µM, the “TGI (total growth inhibition) RPMI-8226” value was 6.50 µM and the “GI % RPMI-8226” value is given as “L (lethal effect (% GI > 100))”. In the experiment with CCRF-CEM, the GI50 is 1.36 µM, the CC50 was > 100 µM, the “TGI (total growth inhibition) CCRF-CEM” value is on record as 6.58 µM and the “GI % CCRF-CEM” value is 9.49%.
Consider `Cc1ccc(NC(=O)c2ccc(CN3CCN(C)CC3)cc2)cc1Nc1nccc(-c2cccnc2)n1` [Imatinib], for which, in the experiment on CML (CML, after 10 years), the long-term success rate is given as 83.3%. Besides, the “overall 5-year survival rate” value in the experiment with CML (patients diagnosed with CML) is 89%.
Regarding `Cc1ccc(C(=O)Nc2ccc(CN3CCN(C)CC3)c(C(F)(F)F)c2)cc1C#Cc1cnc2cccnn12` [Ponatinib, reference compound], in the experiment on Ba/F3 mouse pro-B cells, the GI50 is 0.708 ± 0.037 µM.

Broadly, the IC50 is the concentration that gives 50% inhibition.
